Reference: US8791163B2 (McGill University, priority 2006, dated 2014)

Columns and labels:
[1] = target: T1, cloned human MT1 receptors (Homo sapiens, UniProt P48039); test: 2-[125I]iodomelatonin competition binding, human MT1 in NIH3T3 cells; conditions: calculated from IC50 by Cheng-Prusoff, mean of at least three determinations
T1 construct: expressed in transfected cells
Protocol: (§1) Membranes were incubated for 90 min at 37° C. in binding buffer (Tris/HCl 50 mM, pH 7.4). The final membrane concentration was 5-10 μg of protein per tube. […] The pKi values are the mean of at least three independent determinations performed in duplicate. To define the functional activity of the compounds of Formula (I) at the MT1 and MT2 receptor subtypes, [^35S]GTPγS binding assays in NIH3T3 cells expressing human-cloned MT1 or MT2 receptors were performed. The amount of bound [^35S]GTPγS is proportional to the level of analogue-induced G-protein activation and is related to the intrinsic activity of the compound (i.e. a compound of Formula (I)) under study. […] Nonspecific binding was assessed using non-radiolabeled GTPγS (10 μM). […] Basal stimulation is the amount of [^35S]GTPγS specifically bound in the absence of the compounds of Formula (I) and was taken as 100%. […] All of the measurements were performed in triplicate.

[2] = target: T2, cloned human MT2 receptors (Homo sapiens, UniProt P49286); test: 2-[125I]iodomelatonin competition binding, human MT2 in NIH3T3 cells; conditions: human MT2 in NIH3T3 cells; calculated from IC50 by Cheng-Prusoff; mean of at least three determinations
T2 construct: expressed in transfected cells
T2 sequence (P49286 1-362): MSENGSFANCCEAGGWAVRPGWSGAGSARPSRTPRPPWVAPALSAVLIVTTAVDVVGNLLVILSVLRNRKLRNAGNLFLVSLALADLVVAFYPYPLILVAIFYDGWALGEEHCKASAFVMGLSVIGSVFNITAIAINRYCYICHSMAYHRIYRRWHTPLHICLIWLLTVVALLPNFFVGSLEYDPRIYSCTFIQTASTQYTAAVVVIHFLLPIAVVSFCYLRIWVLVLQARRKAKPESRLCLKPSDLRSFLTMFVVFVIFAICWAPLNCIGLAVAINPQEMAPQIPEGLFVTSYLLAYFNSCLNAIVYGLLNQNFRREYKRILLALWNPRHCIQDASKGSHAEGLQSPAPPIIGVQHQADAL
Protocol: as §1

[3] = target: T1, cloned human MT1 receptors; test: [35S]GTPγS binding assay, NIH3T3 cells expressing human MT1; type: biochemical; conditions: for MT1 IAr ± SEM (relative intrinsic activity): maximal net effect relative to MLT; as to MT1 Activity: key: A = agonist; PA = partial agonist; ANT = antagonist; IA = Inverse agonist
Protocol: as §1

[4] = target: T2, cloned human MT2 receptors; test: [35S]GTPγS binding assay, NIH3T3 cells expressing human MT2; type: biochemical; conditions: for MT2 IAr ± SEM (relative intrinsic activity): maximal net effect relative to MLT; as to MT2 Activity: key: A = agonist; PA = partial agonist; ANT = antagonist; IA = Inverse agonist
Protocol: as §1

[5] = test system: Adult Sprague Dawley rats; test: Elevated plus maze (EPM); type: in vivo, rat; conditions: melatonin 50 mg/kg
Protocol: The maze is comprised of two open arms (50×10 cm) and two closed arms (50×10×40 cm) that extend from a common central platform (10×10 cm). The apparatus, made of wood (painted black) was elevated to a height of 80 cm above floor level. The closed arms are located opposite one another. Behavior is recorded over a period of 5 min using a video camera positioned directly above the maze and rated by an observer blind to drug conditions. The major measure of interest is the amount of time spent in the open arms. As an index of general activity and distribution, the total number of entries into both open and closed arms was also recorded. […] In order to increase the sensitivity of this test to anxiolytic activity, tests are carried out under normal room illumination (25 W bulb).

[6] = target: high-affinity MLT receptors; conditions: read-out: Ki, high-affinity MLT receptors; cited from earlier work

T1 sequence (P48039 whole entry): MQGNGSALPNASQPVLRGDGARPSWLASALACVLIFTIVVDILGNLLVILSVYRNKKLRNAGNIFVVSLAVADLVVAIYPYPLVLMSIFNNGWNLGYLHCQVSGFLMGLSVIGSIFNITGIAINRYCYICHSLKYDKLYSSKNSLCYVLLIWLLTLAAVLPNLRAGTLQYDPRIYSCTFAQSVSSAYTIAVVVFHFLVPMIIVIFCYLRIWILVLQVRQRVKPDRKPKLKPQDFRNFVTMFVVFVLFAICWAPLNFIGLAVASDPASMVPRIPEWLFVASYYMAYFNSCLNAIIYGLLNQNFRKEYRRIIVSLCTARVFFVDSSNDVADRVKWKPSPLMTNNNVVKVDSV

SMILES | MT1 pKi [1] | MT2 pKi [2] | MT1 Activity [3] | MT1 IAr ± SEM (relative intrinsic activity) [3] | MT2 Activity [4] | MT2 IAr ± SEM (relative intrinsic activity) [4] | melting point | Head Dips [5] | Percentage of time in Closed Arms [5] | Percentage of time in Open Arms [5] | Ki [6]
COc1ccc(N(CCNC(C)=O)c2ccccc2)cc1 [5e, N-{-2-[(4-Methoxyphenyl)-phenylamino]ethyl}acetamide] | 6.11 ± 0.12 | 7.56 ± 0.10 | ANT | 0.02 ± 0.01 | ANT | 0.06 ± 0.03 | 102 to 104 °C | – | – | – | –
COc1cccc(N(C)CCNC(C)=O)c1 [5j, N-{2-[(3-Methoxyphenyl)-methylamino]ethyl}acetamide] | 9.09 ± 0.10 | 9.19 ± 0.01 | – | 0.95 ± 0.08 | – | 1.06 ± 0.05 | 69 to 71 °C | – | – | – | –
CCCC(=O)NCCN(c1ccccc1)c1cccc(OC)c1 [5n, N-{2-[(3-Methoxyphenyl)-phenylamino]ethyl}butanamide] | 8.38 ± 0.01 | 9.98 ± 0.26 | – | 1.01 ± 0.04 | – | 0.73 ± 0.02 | 50 to 52 °C | – | – | – | –
COc1ccc2[nH]cc(CCNC(C)=O)c2c1 [MLT, N-acetyl-5-methoxytryptamine, reference compound] | – | – | – | – | – | – | – | 7.17 ± 0.89 | 73.33 ± 3.02 (P = 0.001) % | 26.67 ± 3.0 (P = 0.001) % | ~100 pM
